# Measured values reported in PMC4138103 (PLoS ONE, 2014).
# Read-outs that look alike come from different tables or passages of the source.
# System: Sprague-Dawley rats
# Assay: Serum steroids and gonadotropins
# Format: in vivo, Rattus norvegicus
# Conditions: for CED, Serum FSH / CED, Serum LH / CED-L, Serum FSH / CED-L, Serum LH: adipose tissue concentration based; for Emax: Rattus norvegicus; for Estradiol / LH / Progesterone / FSH / Testosterone: group mean; for Serum FSH, CED / Serum FSH, CED-L / Serum LH, CED / Serum LH, CED-L: total dose based
# Experimental: Serum testosterone, estradiol and progesterone concentrations were measured by time-resolved immunofluorometric assay, DELFIA (PerkinElmer Life and Analytical Sciences, Turku, Finland) after diethyl ether (Merck KGaA, Darmstadt, Germany) extraction. Ether-extracted serum samples were reconstituted to DELFIA Diluent II buffer (PerkinElmer Life and Analytical Sciences, Turku, Finland) and used for analysis. The sensitivity of the assay was 100 pg/ml for testosterone, 13.6 pg/ml for estradiol and 250 pg/ml for progesterone. The intra- and interassay coefficients of variation (CV) were below 6 and 12%, respectively. To enhance the sensitivity, commercial tracer and antiserum were additionally diluted 5∶8 with assay buffer (PerkinElmer Life and Analytical Sciences, Turku, Finland) in testosterone assay. For estradiol and progesterone, dilution rate was 1∶2. Serum follicle stimulating hormone (FSH) and luteinizing hormone (LH) levels were determined from unextracted samples by DELFIA as described previously, [31].
# Data were also analyzed using the BMD method, which is based on dose-response modeling of the full data set using a nested family of exponential and Hill models. The analyses were done on data of males and females combined, using sex as a covariate. […] In that case, different Critical Effect Doses (CEDs) and CEDs at the lowest bound of the confidence interval (CED-L) were generated for each sex. If no difference between sexes is detected, a CED and CED-Ls for the combined data is generated. However, this was also done if the curve fits are close, and separate analyses for males and females were then performed manually. CEDs and CED-Ls were calculated at the predefined Critical Effect Size (CES) of 5% (EFSA standard) or 10%.
# [1] = females, total dose 10 mg/kg bw
# [2] = females, total dose 30 mg/kg bw
# [3] = females, total dose 100 mg/kg bw
# [4] = females, total dose 300 mg/kg bw
# [5] = females, total dose 1000 mg/kg bw
# [6] = females, total dose 1700 mg/kg bw
# [7] = males, total dose 1000 mg/kg bw
# [8] = males, total dose 1700 mg/kg bw
smiles,measurement,setting,value
"Clc1cc(Cl)c(-c2cc(Cl)c(Cl)c(Cl)c2Cl)cc1Cl [PCB 180, 2,2′,3′,4,4′,5,5′-heptachlorobiphenyl]","CED, Serum FSH","M, CES 5%, model E2",1600 µg/g lipid
same,"CED, Serum LH","M, CES 5%, model E2",1160 µg/g lipid
same,"CED-L, Serum FSH","M, CES 5%, model E2",1116 µg/g lipid
same,"CED-L, Serum LH","M, CES 5%, model E2",648 µg/g lipid
same,"CED, Serum FSH","M, CES 10%, model E2",3290 µg/g lipid
same,"CED, Serum LH","M, CES 10%, model E2",2390 µg/g lipid
same,"CED-L, Serum FSH","M, CES 10%, model E2",2292 µg/g lipid
same,"CED-L, Serum LH","M, CES 10%, model E2",1331 µg/g lipid
same,Emax,"males, controls vs high dose, fitted model, read-out: Serum FSH, Maximum response",-20.6%
same,Emax,"males, controls vs high dose, fitted model, read-out: Serum LH, Maximum response",-27.9%
same,Emax,"M, model E2, controls vs high dose according to the fitted model, read-out: Maximum response, Serum FSH",-21.1%
same,Emax,"M, model E2, controls vs high dose according to the fitted model, read-out: Maximum response, Serum LH",-27.8%
same,Estradiol,"females, total dose 3 mg/kg bw",20.2 pg/mL
same,LH,"females, total dose 3 mg/kg bw",1.51 ng/mL
same,Progesterone,"females, total dose 3 mg/kg bw",37.1 ng/mL
same,Estradiol,[1],23.6 pg/mL
same,LH,[1],2.57 ng/mL
same,Progesterone,[1],18.0 ng/mL
same,Estradiol,[2],18.8 pg/mL
same,LH,[2],1.81 ng/mL
same,Progesterone,[2],22.3 ng/mL
same,Estradiol,[3],21.4 pg/mL
same,LH,[3],1.96 ng/mL
same,Progesterone,[3],33.0 ng/mL
same,Estradiol,[4],15.4 pg/mL
same,LH,[4],2.02 ng/mL
same,Progesterone,[4],27.5 ng/mL
same,Estradiol,[5],17.4 pg/mL
same,LH,[5],1.39 ng/mL
same,Progesterone,[5],27.7 ng/mL
same,Estradiol,[6],17.6 pg/mL
same,LH,[6],1.77 ng/mL
same,Progesterone,[6],22.7 ng/mL
same,"FSH, Dose response",males,"D, T"
same,"LH, Dose response",males,"D, T"
same,"Serum FSH, CED","males, CES 5%",377 mg/kg bw
same,"Serum FSH, CED-L","males, CES 5%",263 mg/kg bw
same,"Serum LH, CED","males, CES 5%",266 mg/kg bw
same,"Serum LH, CED-L","males, CES 5%",150 mg/kg bw
same,"Serum FSH, CED","males, CES 10%",775 mg/kg bw
same,"Serum FSH, CED-L","males, CES 10%",540 mg/kg bw
same,"Serum LH, CED","males, CES 10%",547 mg/kg bw
same,"Serum LH, CED-L","males, CES 10%",309 mg/kg bw
same,FSH,"males, total dose 3 mg/kg bw",8.23 ng/mL
same,LH,"males, total dose 3 mg/kg bw",1.23 ng/mL
same,Testosterone,"males, total dose 3 mg/kg bw",2.35 ng/mL
same,FSH,"males, total dose 10 mg/kg bw",8.54 ng/mL
same,LH,"males, total dose 10 mg/kg bw",0.91 ng/mL
same,Testosterone,"males, total dose 10 mg/kg bw",2.66 ng/mL
same,FSH,"males, total dose 30 mg/kg bw",7.44 ng/mL
same,LH,"males, total dose 30 mg/kg bw",0.99 ng/mL
same,Testosterone,"males, total dose 30 mg/kg bw",1.92 ng/mL
same,FSH,"males, total dose 100 mg/kg bw",7.88 ng/mL
same,LH,"males, total dose 100 mg/kg bw",0.84 ng/mL
same,Testosterone,"males, total dose 100 mg/kg bw",3.21 ng/mL
same,FSH,"males, total dose 300 mg/kg bw",7.66 ng/mL
same,LH,"males, total dose 300 mg/kg bw",1.03 ng/mL
same,Testosterone,"males, total dose 300 mg/kg bw",2.04 ng/mL
same,FSH,[7],7.49 ng/mL
same,LH,[7],0.77 ng/mL
same,Testosterone,[7],2.18 ng/mL
same,FSH,[8],6.49 ng/mL
same,LH,[8],0.75 ng/mL
same,Testosterone,[8],1.85 ng/mL
